According to the kinase profiling compilation of Christmann-Franck et al. (2016):

Assays:
Assay in all cases: KINOMEscan competition binding
Details in all cases: compound 10.0 µM
[1] = system: ABL1 (human), P00519 [M351T]
[2] = target: CAMKK1 (human) (UniProt Q8N5S9)
[3] = target: CDC42BPG (human) (UniProt Q6DT37)
[4] = target: CDK11B (human) (UniProt P21127)
[5] = target: CDK17 (human) (UniProt Q00537)
[6] = target: CDK3 (human) (UniProt Q00526)
[7] = target: CDK8 (human) (UniProt P49336)
[8] = target: DCLK3 (human) (UniProt Q9C098)
[9] = system: EIF2AK4 KD2 (human), Q9P2K8 [S808G]
[10] = target: EPHA1 (human) (UniProt P21709)
[11] = target: EPHA8 (human) (UniProt P29322)
[12] = target: FGFR2 (human) (UniProt P21802)
[13] = target: FGFR3 (human) (UniProt P22607)
[14] = target: FGR (human) (UniProt P09769)
[15] = target: GAK (human) (UniProt O14976)
[16] = system: KIT (human), P10721 [D816V]
[17] = target: LIMK1 (human) (UniProt P53667)
[18] = target: MAP4K2 (human) (UniProt Q12851)
[19] = target: MAP4K4 (human) (UniProt O95819)
[20] = target: MAPK10 (human) (UniProt P53779)
[21] = target: MLTK (human) (UniProt Q9NYL2)
[22] = target: MYO3B (human) (UniProt Q8WXR4)
[23] = target: NEK5 (human) (UniProt Q6P3R8)
[24] = target: NTRK3 (human) (UniProt Q16288)
[25] = target: PIP5K1A (human) (UniProt Q99755)
[26] = target: PKN1 (human) (UniProt Q16512)
[27] = target: PKN2 (human) (UniProt Q16513)
[28] = target: PRKAA2 (human) (UniProt P54646)
[29] = target: PRKCE (human) (UniProt Q02156)
[30] = target: PRKG2 (human) (UniProt Q13237)
[31] = target: PTK2B (human) (UniProt Q14289)
[32] = target: RPS6KA4 KD2 (human) (UniProt O75676)
[33] = target: RPS6KA6 KD1 (human) (UniProt Q9UK32)
[34] = target: STK10 (human) (UniProt O94804)
[35] = target: STK16 (human) (UniProt O75716)
[36] = target: STK24 (human) (UniProt Q9Y6E0)
[37] = target: STK38L (human) (UniProt Q9Y2H1)
[38] = target: STK4 (human) (UniProt Q13043)
[39] = target: TNK1 (human) (UniProt Q13470)
[40] = target: TYK2 JH1 catalytic (human) (UniProt P29597)
Chain of TYK2 JH1 catalytic (human) (P29597 whole entry, looked up): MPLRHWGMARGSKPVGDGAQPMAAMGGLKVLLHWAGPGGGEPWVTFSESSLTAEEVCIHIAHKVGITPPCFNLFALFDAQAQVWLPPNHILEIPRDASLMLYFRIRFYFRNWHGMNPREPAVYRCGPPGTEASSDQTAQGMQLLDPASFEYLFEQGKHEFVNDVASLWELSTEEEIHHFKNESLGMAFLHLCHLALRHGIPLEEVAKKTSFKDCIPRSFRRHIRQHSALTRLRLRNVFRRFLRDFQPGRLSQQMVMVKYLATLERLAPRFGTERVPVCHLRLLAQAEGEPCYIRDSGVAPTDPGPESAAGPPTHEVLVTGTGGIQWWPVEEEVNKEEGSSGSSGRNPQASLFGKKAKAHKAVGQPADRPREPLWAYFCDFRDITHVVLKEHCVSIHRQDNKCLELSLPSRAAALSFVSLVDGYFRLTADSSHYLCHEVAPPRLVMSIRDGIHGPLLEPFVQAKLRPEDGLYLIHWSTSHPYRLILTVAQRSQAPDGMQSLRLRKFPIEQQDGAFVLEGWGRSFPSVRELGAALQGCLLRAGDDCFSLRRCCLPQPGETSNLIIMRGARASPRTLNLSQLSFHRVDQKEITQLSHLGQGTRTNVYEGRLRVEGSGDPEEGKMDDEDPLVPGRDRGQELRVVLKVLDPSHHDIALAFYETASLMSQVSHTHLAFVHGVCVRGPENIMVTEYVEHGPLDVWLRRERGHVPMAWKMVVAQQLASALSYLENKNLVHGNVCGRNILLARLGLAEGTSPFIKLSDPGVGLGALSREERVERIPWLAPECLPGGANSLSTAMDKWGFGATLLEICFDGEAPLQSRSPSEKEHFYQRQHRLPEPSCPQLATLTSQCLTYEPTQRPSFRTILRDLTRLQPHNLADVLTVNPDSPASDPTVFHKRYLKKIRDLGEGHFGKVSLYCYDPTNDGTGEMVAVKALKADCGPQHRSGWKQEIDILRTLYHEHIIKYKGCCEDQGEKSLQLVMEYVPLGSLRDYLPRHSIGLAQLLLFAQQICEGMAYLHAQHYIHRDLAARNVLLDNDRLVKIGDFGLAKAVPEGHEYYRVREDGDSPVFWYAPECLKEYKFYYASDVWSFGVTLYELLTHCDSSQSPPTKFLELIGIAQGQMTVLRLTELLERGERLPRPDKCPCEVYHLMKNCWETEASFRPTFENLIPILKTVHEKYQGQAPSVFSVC

Chain of KIT (human), P10721 [D816V] (P10721 whole entry D816V, looked up): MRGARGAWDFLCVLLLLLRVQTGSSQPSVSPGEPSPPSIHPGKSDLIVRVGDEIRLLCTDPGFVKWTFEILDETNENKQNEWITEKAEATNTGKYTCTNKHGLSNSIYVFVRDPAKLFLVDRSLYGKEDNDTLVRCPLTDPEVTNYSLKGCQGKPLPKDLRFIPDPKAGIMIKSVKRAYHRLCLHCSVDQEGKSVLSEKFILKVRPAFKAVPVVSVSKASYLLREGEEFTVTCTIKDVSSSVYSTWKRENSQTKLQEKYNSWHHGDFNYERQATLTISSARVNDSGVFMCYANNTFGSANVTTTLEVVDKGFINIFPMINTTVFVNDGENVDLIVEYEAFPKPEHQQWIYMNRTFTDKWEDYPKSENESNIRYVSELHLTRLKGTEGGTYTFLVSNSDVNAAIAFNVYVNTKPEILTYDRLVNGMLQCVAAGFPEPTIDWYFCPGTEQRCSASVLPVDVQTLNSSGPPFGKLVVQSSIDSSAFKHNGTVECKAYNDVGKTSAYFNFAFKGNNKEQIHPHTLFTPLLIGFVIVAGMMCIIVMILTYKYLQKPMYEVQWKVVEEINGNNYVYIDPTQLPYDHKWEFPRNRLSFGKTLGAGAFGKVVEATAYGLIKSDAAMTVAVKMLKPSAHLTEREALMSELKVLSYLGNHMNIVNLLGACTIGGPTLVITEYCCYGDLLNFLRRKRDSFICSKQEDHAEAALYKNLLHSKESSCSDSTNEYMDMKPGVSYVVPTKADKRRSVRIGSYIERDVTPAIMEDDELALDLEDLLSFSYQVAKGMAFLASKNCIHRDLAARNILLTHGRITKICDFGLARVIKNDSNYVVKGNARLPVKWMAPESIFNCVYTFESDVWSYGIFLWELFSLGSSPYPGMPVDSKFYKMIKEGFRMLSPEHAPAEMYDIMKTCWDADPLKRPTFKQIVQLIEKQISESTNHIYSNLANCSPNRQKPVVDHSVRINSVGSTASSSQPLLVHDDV
Chain of TNK1 (human) (Q13470 whole entry, looked up): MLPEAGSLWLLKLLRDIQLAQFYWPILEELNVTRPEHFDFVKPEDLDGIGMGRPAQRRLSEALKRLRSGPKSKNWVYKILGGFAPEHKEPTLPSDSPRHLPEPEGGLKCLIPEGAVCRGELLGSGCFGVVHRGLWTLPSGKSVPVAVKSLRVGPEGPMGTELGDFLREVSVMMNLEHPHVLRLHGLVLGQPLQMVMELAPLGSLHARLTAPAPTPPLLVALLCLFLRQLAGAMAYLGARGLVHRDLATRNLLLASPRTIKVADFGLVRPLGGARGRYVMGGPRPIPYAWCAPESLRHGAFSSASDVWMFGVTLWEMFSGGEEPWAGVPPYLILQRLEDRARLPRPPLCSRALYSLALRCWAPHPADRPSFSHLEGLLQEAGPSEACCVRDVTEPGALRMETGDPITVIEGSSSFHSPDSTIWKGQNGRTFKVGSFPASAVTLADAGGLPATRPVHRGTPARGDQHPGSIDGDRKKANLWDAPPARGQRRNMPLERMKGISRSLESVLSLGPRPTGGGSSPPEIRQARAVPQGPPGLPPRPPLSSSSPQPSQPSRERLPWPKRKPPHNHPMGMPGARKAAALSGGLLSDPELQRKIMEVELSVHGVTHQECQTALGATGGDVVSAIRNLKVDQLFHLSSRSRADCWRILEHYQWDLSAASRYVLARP
Chain of EPHA8 (human) (P29322 whole entry, looked up): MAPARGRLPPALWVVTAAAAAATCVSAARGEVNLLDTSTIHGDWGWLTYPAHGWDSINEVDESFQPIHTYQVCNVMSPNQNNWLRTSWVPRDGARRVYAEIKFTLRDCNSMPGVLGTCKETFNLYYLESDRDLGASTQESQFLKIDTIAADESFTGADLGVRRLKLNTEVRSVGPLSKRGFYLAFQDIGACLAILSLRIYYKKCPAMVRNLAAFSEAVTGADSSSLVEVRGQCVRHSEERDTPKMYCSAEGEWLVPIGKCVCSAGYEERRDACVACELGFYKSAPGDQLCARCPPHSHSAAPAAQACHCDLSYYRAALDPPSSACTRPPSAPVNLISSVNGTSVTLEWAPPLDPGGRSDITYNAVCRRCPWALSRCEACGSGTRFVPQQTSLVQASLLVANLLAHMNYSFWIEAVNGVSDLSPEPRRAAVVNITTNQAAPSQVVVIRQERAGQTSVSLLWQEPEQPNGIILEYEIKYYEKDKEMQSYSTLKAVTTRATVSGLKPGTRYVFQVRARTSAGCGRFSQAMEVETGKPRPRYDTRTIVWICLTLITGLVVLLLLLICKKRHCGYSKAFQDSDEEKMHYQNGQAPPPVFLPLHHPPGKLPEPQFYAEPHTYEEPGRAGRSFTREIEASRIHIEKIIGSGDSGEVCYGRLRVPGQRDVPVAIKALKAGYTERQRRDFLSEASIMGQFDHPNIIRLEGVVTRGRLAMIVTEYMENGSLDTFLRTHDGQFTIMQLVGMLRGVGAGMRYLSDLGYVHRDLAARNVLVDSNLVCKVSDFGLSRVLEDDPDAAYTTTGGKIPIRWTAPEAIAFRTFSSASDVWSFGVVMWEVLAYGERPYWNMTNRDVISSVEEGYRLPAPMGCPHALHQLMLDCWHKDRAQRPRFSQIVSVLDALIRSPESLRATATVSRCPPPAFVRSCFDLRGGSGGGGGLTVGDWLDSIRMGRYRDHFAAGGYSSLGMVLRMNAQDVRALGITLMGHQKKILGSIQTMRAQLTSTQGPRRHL
Chain of NTRK3 (human) (Q16288 whole entry, looked up): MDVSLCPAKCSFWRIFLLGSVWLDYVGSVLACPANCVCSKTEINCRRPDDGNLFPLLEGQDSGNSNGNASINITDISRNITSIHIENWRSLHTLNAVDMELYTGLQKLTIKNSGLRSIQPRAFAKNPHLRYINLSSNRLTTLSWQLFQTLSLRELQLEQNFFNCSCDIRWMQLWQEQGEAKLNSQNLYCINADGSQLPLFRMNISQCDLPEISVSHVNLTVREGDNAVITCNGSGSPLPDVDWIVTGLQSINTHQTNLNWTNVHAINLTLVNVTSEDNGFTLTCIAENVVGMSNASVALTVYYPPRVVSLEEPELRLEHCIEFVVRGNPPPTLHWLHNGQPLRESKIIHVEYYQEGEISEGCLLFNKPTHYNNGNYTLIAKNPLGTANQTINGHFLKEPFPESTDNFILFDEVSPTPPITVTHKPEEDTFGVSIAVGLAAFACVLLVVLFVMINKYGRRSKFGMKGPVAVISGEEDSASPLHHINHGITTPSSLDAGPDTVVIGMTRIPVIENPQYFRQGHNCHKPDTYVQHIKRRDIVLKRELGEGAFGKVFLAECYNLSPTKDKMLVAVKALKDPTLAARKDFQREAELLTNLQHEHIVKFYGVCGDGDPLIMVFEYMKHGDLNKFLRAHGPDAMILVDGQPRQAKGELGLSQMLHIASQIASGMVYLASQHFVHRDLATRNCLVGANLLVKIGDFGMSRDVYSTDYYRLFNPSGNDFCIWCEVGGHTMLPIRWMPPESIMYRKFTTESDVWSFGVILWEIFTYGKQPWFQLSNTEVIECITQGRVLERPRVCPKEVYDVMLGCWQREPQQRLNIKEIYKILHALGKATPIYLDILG
Chain of CDK3 (human) (Q00526 whole entry, looked up): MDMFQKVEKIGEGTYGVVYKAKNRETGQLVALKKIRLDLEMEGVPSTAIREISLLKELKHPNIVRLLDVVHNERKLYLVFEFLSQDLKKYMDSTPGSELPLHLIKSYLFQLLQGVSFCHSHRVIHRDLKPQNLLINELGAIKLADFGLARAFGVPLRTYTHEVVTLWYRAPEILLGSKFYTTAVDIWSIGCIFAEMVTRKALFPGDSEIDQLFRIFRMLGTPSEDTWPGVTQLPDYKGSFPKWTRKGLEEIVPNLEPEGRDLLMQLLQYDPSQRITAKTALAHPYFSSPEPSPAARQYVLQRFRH

SMILES | kinase still bound, per cent of control [1] [%] | kinase still bound, per cent of control [2] [%] | kinase still bound, per cent of control [3] [%] | kinase still bound, per cent of control [4] [%] | kinase still bound, per cent of control [5] [%] | kinase still bound, per cent of control [6] [%] | kinase still bound, per cent of control [7] [%] | kinase still bound, per cent of control [8] [%] | kinase still bound, per cent of control [9] [%] | kinase still bound, per cent of control [10] [%] | kinase still bound, per cent of control [11] [%] | kinase still bound, per cent of control [12] [%] | kinase still bound, per cent of control [13] [%] | kinase still bound, per cent of control [14] [%] | kinase still bound, per cent of control [15] [%] | kinase still bound, per cent of control [16] [%] | kinase still bound, per cent of control [17] [%] | kinase still bound, per cent of control [18] [%] | kinase still bound, per cent of control [19] [%] | kinase still bound, per cent of control [20] [%] | further results
N#Cc1c(NC(=O)c2cccc3ccccc23)sc2c1CCCC2 | 98 | 91 | 81 | 95 | 93 | 97 | 100 | 100 | 82 | 85 | 79 | 100 | 100 | 100 | 67 | 97 | 76 | 100 | 66 | 0.95 | kinase still bound, per cent of control [21]: 87%; kinase still bound, per cent of control [22]: 88%; kinase still bound, per cent of control [23]: 79%; kinase still bound, per cent of control [24]: 86%; kinase still bound, per cent of control [25]: 100%; kinase still bound, per cent of control [26]: 94%; kinase still bound, per cent of control [27]: 81%; kinase still bound, per cent of control [28]: 84%; kinase still bound, per cent of control [29]: 100%; kinase still bound, per cent of control [30]: 86%; kinase still bound, per cent of control [31]: 79%; kinase still bound, per cent of control [32]: 100%; kinase still bound, per cent of control [33]: 70%; kinase still bound, per cent of control [34]: 67%; kinase still bound, per cent of control [35]: 89%; kinase still bound, per cent of control [36]: 80%; kinase still bound, per cent of control [37]: 98%; kinase still bound, per cent of control [38]: 94%; kinase still bound, per cent of control [39]: 74%; kinase still bound, per cent of control [40]: 100%
CCN1CCN(Cc2ccc(Nc3ncc4c(n3)N(C)c3ccccc3C(=O)N4C)cc2C(F)(F)F)CC1 | 0.65 | 79 | 92 | 99 | 88 | 100 | 94 | 68 | 88 | 61 | 100 | 50 | 43 | 26 | 12 | 46 | 52 | 17 | 81 | 100 | kinase still bound, per cent of control [21]: 65%; kinase still bound, per cent of control [22]: 100%; kinase still bound, per cent of control [23]: 77%; kinase still bound, per cent of control [24]: 100%; kinase still bound, per cent of control [25]: 5%; kinase still bound, per cent of control [26]: 76%; kinase still bound, per cent of control [27]: 55%; kinase still bound, per cent of control [28]: 5%; kinase still bound, per cent of control [29]: 81%; kinase still bound, per cent of control [30]: 86%; kinase still bound, per cent of control [31]: 96%; kinase still bound, per cent of control [32]: 100%; kinase still bound, per cent of control [33]: 19%; kinase still bound, per cent of control [34]: 28%; kinase still bound, per cent of control [35]: 15%; kinase still bound, per cent of control [36]: 35%; kinase still bound, per cent of control [37]: 90%; kinase still bound, per cent of control [38]: 72%; kinase still bound, per cent of control [39]: 0.3%; kinase still bound, per cent of control [40]: 2%
Cc1ccc2nc(NCCN)c3ncc(C)n3c2c1 | 100 | 100 | 94 | 0.95 | 92 | 100 | 100 | 76 | 98 | 79 | 100 | 100 | 99 | 100 | 79 | 88 | 100 | 92 | 100 | 100 | kinase still bound, per cent of control [21]: 96%; kinase still bound, per cent of control [22]: 100%; kinase still bound, per cent of control [23]: 100%; kinase still bound, per cent of control [24]: 100%; kinase still bound, per cent of control [25]: 92%; kinase still bound, per cent of control [26]: 92%; kinase still bound, per cent of control [27]: 71%; kinase still bound, per cent of control [28]: 100%; kinase still bound, per cent of control [29]: 100%; kinase still bound, per cent of control [30]: 100%; kinase still bound, per cent of control [31]: 100%; kinase still bound, per cent of control [32]: 15%; kinase still bound, per cent of control [33]: 88%; kinase still bound, per cent of control [34]: 100%; kinase still bound, per cent of control [35]: 100%; kinase still bound, per cent of control [36]: 81%; kinase still bound, per cent of control [37]: 100%; kinase still bound, per cent of control [38]: 100%; kinase still bound, per cent of control [39]: 100%; kinase still bound, per cent of control [40]: 100%
